15 molecules from PubChem BioAssay (NCI) can be followed below.

Usually TGI stands for the concentration at which net growth stops. Low readings indicate greater sensitivity of the cells, high ones lower sensitivity of the cells.

Among the test systems are SK-MEL-28 melanoma; CCRF-CEM leukemia; OVCAR-3 ovarian; SW-620 colon; EKVX NSCLC; HCT-116 colon; RXF 393 renal; NCI-H23 lung; MALME-3M melanoma; HOP-92 NSCLC; HOP-62 NSCLC; OVCAR-8 ovarian; IGROV1 ovarian; NCI-H522 lung.
Holding throughout (assay): DTP human tumour cell line panel, 48 h

Molecules are shown by their SMILES.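 Method: 48-hour compound exposure of cells in 96-well plates, five concentrations, linear interpolation of endpoints. TGI is the concentration that stops growth completely.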

With `CCN(CC)c1ccc2c(c1)OC(=O)C(c1nnc(-c3ccc([N+](=O)[O-])cc3)o1)C2` (stereo not drawn), the TGI with SK-MEL-28 melanoma, in the assay with CCRF-CEM leukemia, in the assay on OVCAR-3 ovarian, in the assay on SW-620 colon, in the assay on EKVX NSCLC and in the assay on HCT-116 colon was greater than 100 µM in each case. Also, the TGI with RXF 393 renal, in the assay with NCI-H23 lung, in the assay with MALME-3M melanoma, with HOP-92 NSCLC, with HOP-62 NSCLC and with OVCAR-8 ovarian was greater than 100 µM each time. Further, the concentration for total growth inhibition (TGI) in the assay with IGROV1 ovarian and in the assay on NCI-H522 lung was greater than 100 µM in each case.

For `Nc1nc(Cl)c(N)c(NCC2(CO)CC(Cc3ccccc3)C2)n1` (stereo not drawn), the concentration for total growth inhibition (TGI) with SK-MEL-28 melanoma, in the assay on CCRF-CEM leukemia, with OVCAR-3 ovarian, in the assay with SW-620 colon, in the assay with EKVX NSCLC and in the assay on HCT-116 colon was greater than 100 µM each time. The TGI with RXF 393 renal, in the assay on NCI-H23 lung, with MALME-3M melanoma, with HOP-92 NSCLC, with HOP-62 NSCLC and in the assay with OVCAR-8 ovarian was greater than 100 µM throughout. The TGI in the assay with IGROV1 ovarian and in the assay with NCI-H522 lung was greater than 100 µM each time.

Take `O=C(C/C(=N\NC(=O)C[n+]1ccccc1)C(=O)Nc1nc2ccc([N+](=O)[O-])cc2s1)CC(c1ccccc1)c1c(O)c2ccccc2oc1=O` (stereo not drawn): the TGI with SK-MEL-28 melanoma, in the assay on CCRF-CEM leukemia, in the assay on OVCAR-3 ovarian, in the assay with SW-620 colon, in the assay with EKVX NSCLC and in the assay on HCT-116 colon was greater than 100 µM throughout. Besides, the total growth inhibition concentration (TGI) in the assay on RXF 393 renal, with NCI-H23 lung, in the assay with MALME-3M melanoma, with HOP-92 NSCLC, in the assay on HOP-62 NSCLC and with OVCAR-8 ovarian was greater than 100 µM in each case. Also, the TGI in the assay on IGROV1 ovarian and with NCI-H522 lung was greater than 100 µM in each case.

On to `CC12CCC([C@H](N3CCOCC3)/C1=N\OCCN1CCCC1)C2(C)C` (stereo partly drawn), for which the total growth inhibition concentration (TGI) with SK-MEL-28 melanoma, with CCRF-CEM leukemia, in the assay on OVCAR-3 ovarian, in the assay on SW-620 colon, in the assay with EKVX NSCLC and in the assay on HCT-116 colon was greater than 100 µM throughout. For the same molecule, the TGI in the assay with RXF 393 renal, in the assay with NCI-H23 lung, in the assay with MALME-3M melanoma, in the assay with HOP-92 NSCLC, in the assay with HOP-62 NSCLC and with OVCAR-8 ovarian was greater than 100 µM each time. The TGI with IGROV1 ovarian and in the assay on NCI-H522 lung was greater than 100 µM each time.

With `O=C1NCN(c2ccccc2)C12CCN(CCc1ccc3[nH]c(=S)[nH]c3c1)CC2`, the TGI in the assay on SK-MEL-28 melanoma was 20.3 µM; with CCRF-CEM leukemia, 22 µM; in the assay on OVCAR-3 ovarian, greater than 100 µM; with SW-620 colon, 25.8 µM; with EKVX NSCLC, greater than 100 µM; with HCT-116 colon, greater than 100 µM. Moreover, the concentration for total growth inhibition (TGI) with RXF 393 renal was 36.5 µM; in the assay on NCI-H23 lung it was greater than 100 µM; in the assay on MALME-3M melanoma it was 30.8 µM; in the assay on HOP-92 NSCLC, 93.7 µM; in the assay with HOP-62 NSCLC, greater than 100 µM; in the assay on OVCAR-8 ovarian, greater than 100 µM. Also, the TGI in the assay with IGROV1 ovarian and in the assay on NCI-H522 lung was greater than 100 µM in each case.

With `CCOc1cc(-c2nc3ccccn3c2/N=C/c2cc([N+](=O)[O-])cc([N+](=O)[O-])c2O)ccc1O`, the TGI with SK-MEL-28 melanoma, in the assay with CCRF-CEM leukemia, in the assay with OVCAR-3 ovarian, in the assay on SW-620 colon, in the assay with EKVX NSCLC and with HCT-116 colon was greater than 100 µM in each case. The TGI with RXF 393 renal, in the assay on NCI-H23 lung, in the assay on MALME-3M melanoma, with HOP-92 NSCLC, in the assay with HOP-62 NSCLC and in the assay with OVCAR-8 ovarian was greater than 100 µM in each case. In addition, the total growth inhibition concentration (TGI) in the assay with IGROV1 ovarian and with NCI-H522 lung was greater than 100 µM in each case.

On to `COc1cccc(/C(CC(O)(C(F)(F)F)C(F)(F)F)=N\N(C)C)c1`, for which the TGI in the assay with SK-MEL-28 melanoma, in the assay with CCRF-CEM leukemia, in the assay on OVCAR-3 ovarian, in the assay on SW-620 colon, with EKVX NSCLC and in the assay on HCT-116 colon was greater than 100 µM in each case. For the same molecule, the concentration for total growth inhibition (TGI) in the assay on RXF 393 renal, in the assay with NCI-H23 lung, in the assay with MALME-3M melanoma, in the assay with HOP-92 NSCLC, with HOP-62 NSCLC and with IGROV1 ovarian was greater than 100 µM in each case. The TGI in the assay with NCI-H522 lung was greater than 100 µM.

Take `CC1CC(=O)Nc2cc(Cl)ccc2N1C(=O)C1CC1` (stereo not drawn): the total growth inhibition concentration (TGI) in the assay with SK-MEL-28 melanoma, with CCRF-CEM leukemia, with OVCAR-3 ovarian, in the assay with SW-620 colon, in the assay with EKVX NSCLC and in the assay on HCT-116 colon was greater than 100 µM throughout. Besides, the total growth inhibition concentration (TGI) in the assay on RXF 393 renal, in the assay on NCI-H23 lung, in the assay on MALME-3M melanoma, in the assay with HOP-92 NSCLC, in the assay with HOP-62 NSCLC and in the assay with OVCAR-8 ovarian was greater than 100 µM each time. The TGI in the assay with IGROV1 ovarian and in the assay with NCI-H522 lung was greater than 100 µM throughout.

For the molecule `Cc1cc(C)nc(NS(=O)(=O)c2ccc(NN=c3c4ccccc4n(C)c4ccccc34)cc2)n1`, the concentration for total growth inhibition (TGI) with SK-MEL-28 melanoma was 67.7 µM; with CCRF-CEM leukemia, 77.6 µM; in the assay on OVCAR-3 ovarian it was greater than 100 µM; with SW-620 colon, greater than 100 µM; with EKVX NSCLC, 97.7 µM; with HCT-116 colon, greater than 100 µM. For the same molecule, the total growth inhibition concentration (TGI) is 50.8 µM in the assay with RXF 393 renal; greater than 100 µM with NCI-H23 lung; 91.3 µM in the assay on MALME-3M melanoma; greater than 100 µM with HOP-92 NSCLC; greater than 100 µM in the assay with HOP-62 NSCLC; greater than 100 µM with OVCAR-8 ovarian. In addition, the total growth inhibition concentration (TGI) is greater than 100 µM with IGROV1 ovarian and 61.5 µM in the assay on NCI-H522 lung.

Take `Cc1nc(Cl)c2sc(=S)n(-c3ccc(F)cc3)c2n1`: the TGI with SK-MEL-28 melanoma was 10.6 µM; in the assay with CCRF-CEM leukemia, greater than 100 µM; in the assay with OVCAR-3 ovarian, 7.02 µM; with SW-620 colon it was 14.1 µM; in the assay on EKVX NSCLC it was 32.9 µM; with HCT-116 colon, 4.15 µM. Further, the TGI worked out at 21.1 µM in the assay on RXF 393 renal; 2.52 µM with NCI-H23 lung; 23.9 µM with MALME-3M melanoma; 33.1 µM with HOP-92 NSCLC; 9.73 µM in the assay with HOP-62 NSCLC; 33.8 µM in the assay with OVCAR-8 ovarian. For the same molecule, the TGI with IGROV1 ovarian stood at 3.53 µM; in the assay on NCI-H522 lung, 10.9 µM.

Turning to `O=C(O)c1c[nH]c2c(=O)[nH]cnc12`, the TGI with SK-MEL-28 melanoma, in the assay on CCRF-CEM leukemia, in the assay on OVCAR-3 ovarian, in the assay on SW-620 colon, in the assay with EKVX NSCLC and in the assay with HCT-116 colon was greater than 100 µM each time. The TGI with RXF 393 renal, in the assay with NCI-H23 lung, in the assay with MALME-3M melanoma, in the assay with HOP-92 NSCLC, with HOP-62 NSCLC and in the assay on OVCAR-8 ovarian was greater than 100 µM each time. Further, the total growth inhibition concentration (TGI) in the assay on IGROV1 ovarian and in the assay with NCI-H522 lung was greater than 100 µM throughout.

Consider `CCOC(=O)N1CCN(c2c(C)nc(C)[nH]c2=O)CC1`, for which the TGI with SK-MEL-28 melanoma, with CCRF-CEM leukemia, in the assay on OVCAR-3 ovarian, with SW-620 colon, in the assay on EKVX NSCLC and in the assay on HCT-116 colon was greater than 100 µM each time. Moreover, the TGI in the assay with RXF 393 renal, with NCI-H23 lung, with MALME-3M melanoma, in the assay with HOP-92 NSCLC, with HOP-62 NSCLC and in the assay on OVCAR-8 ovarian was greater than 100 µM each time. In addition, the TGI in the assay with IGROV1 ovarian and with NCI-H522 lung was greater than 100 µM in each case.

As for `CNC(C)Cc1ccccc1O` (stereo not drawn), the concentration for total growth inhibition (TGI) with SK-MEL-28 melanoma, with CCRF-CEM leukemia, in the assay with OVCAR-3 ovarian, in the assay on SW-620 colon, in the assay with EKVX NSCLC and in the assay on HCT-116 colon was greater than 100 µM throughout. For the same molecule, the TGI in the assay on RXF 393 renal, in the assay with NCI-H23 lung, in the assay with MALME-3M melanoma, in the assay with HOP-92 NSCLC, in the assay with HOP-62 NSCLC and in the assay on OVCAR-8 ovarian was greater than 100 µM each time. In addition, the TGI with IGROV1 ovarian and in the assay with NCI-H522 lung was greater than 100 µM in each case.

Take `OC(CC(CC(O)(C(F)(F)Cl)C(F)(F)Cl)=NNc1ccccc1)(C(F)(F)Cl)C(F)(F)Cl`: the TGI was 8.06 µM with SK-MEL-28 melanoma; greater than 10 µM in the assay on CCRF-CEM leukemia; 6.38 µM in the assay with OVCAR-3 ovarian; greater than 10 µM in the assay on SW-620 colon; 7.35 µM with EKVX NSCLC; 3.89 µM in the assay with HCT-116 colon. Further, the concentration for total growth inhibition (TGI) in the assay on RXF 393 renal is 6.82 µM; in the assay with NCI-H23 lung, 7.31 µM; in the assay on MALME-3M melanoma, 7.14 µM; with HOP-92 NSCLC, 5.19 µM; in the assay with HOP-62 NSCLC it was 7.95 µM; with OVCAR-8 ovarian it was greater than 10 µM. In addition, the TGI in the assay on IGROV1 ovarian and in the assay with NCI-H522 lung was greater than 10 µM each time.

Turning to `COc1ccc(/C(CCl)=C(\Nc2ccccc2)c2ccc(OC)c(OC)c2)cc1OC`, the TGI in the assay on SK-MEL-28 melanoma, with CCRF-CEM leukemia, in the assay with OVCAR-3 ovarian, in the assay with SW-620 colon, in the assay on EKVX NSCLC and in the assay on HCT-116 colon was greater than 100 µM throughout. Also, the TGI in the assay on RXF 393 renal, in the assay on NCI-H23 lung, in the assay with MALME-3M melanoma, in the assay with HOP-92 NSCLC, with HOP-62 NSCLC and in the assay with OVCAR-8 ovarian was greater than 100 µM in each case. Moreover, the total growth inhibition concentration (TGI) with NCI-H522 lung was greater than 100 µM.
